Assays:
HeLa [1] = assay: Inhibition of DNA replication in human HeLa cells assessed as interorigin distance between homogenous DNA fibers at 2 uM after 4 hrs by immunofluorescence assay; type: functional
HeLa [2] = assay: Inhibition of DNA replication in human HeLa cells assessed as interorigin distance between homogenous DNA fibers at 2 uM after 6 hrs by immunofluorescence assay; type: functional
HeLa [3] = assay: Inhibition of DNA replication in human HeLa cells assessed as interorigin distance between homogenous DNA fibers at 5 uM after 2 hrs by immunofluorescence assay; type: functional
HeLa [4] = assay: Inhibition of DNA replication in human HeLa cells assessed as increase in replication fork speed per min at 2 uM after 4 hrs by immunofluorescence assay; type: functional
HeLa [5] = assay: Inhibition of DNA replication in human HeLa cells assessed as increase in replication fork speed per min at 5 uM after 2 hrs by immunofluorescence assay; type: functional
NHDF [6] = assay: Induction of cell cycle arrest in NHDF assessed as accumulation at subG1 phase at 5 uM after 24hrs by propidium-iodine staining based FACS analysis; conditions: human
[7] = Induction of cell cycle arrest in NHDF assessed as accumulation at subG1 phase at 5 uM after 24hrs by propidium-iodine staining based FACS analysis in presence of p53 specific siRNA; conditions: human
NHDF [8] = assay: Induction of cell cycle arrest in thymidine deficient NHDF assessed as DNA synthesis in S-phase at 5 uM after 2hrs FACS analysis; type: cell-based; conditions: human
Mus musculus = assay: AUC in SCID mouse carrying human HL60 cells at 20 mg/kg, iv after 10 hrs; type: ADME, organism-based, HL-60; parameters: time < 10 hr, dose 20 mg/kg, route intravenous; conditions: in vivo
[9] = Clearance in rat carrying DMBA-induced mammary carcinoma at 10 mg/kg, iv after 10 hrs; type: ADME, organism-based; parameters: dose 10 mg/kg, route intravenous; conditions: in vivo
[10] = Clearance in SCID mouse carrying human HL60 cells at 20 mg/kg or 30 mg/kg, iv after 10 hrs; type: ADME, organism-based, HL-60; conditions: in vivo
[11] = molecular target: Serine/threonine-protein kinase Nek6 (Homo sapiens, UniProt Q9HC98); assay: Inhibition of Nek6
[12] = Inhibition of PDGFR
SF-268 [13] = assay: Antiproliferative activity against p53 deficient human SF268 cells after 72 hrs; type: functional, cell-based; conditions: SF-268, 72 h
K562 = assay: Antiproliferative activity against p53 deficient human K562 cells after 72 hrs; type: functional, cell-based; conditions: K562, 72 h
HeLa [14] = assay: Antiproliferative activity against p53 deficient human HeLa cells after 72 hrs; type: functional, cell-based
SW480 [15] = assay: Antiproliferative activity against p53 deficient human SW480 cells after 72 hrs by proliferative assay; type: functional, cell-based; conditions: SW480, 72 h
OVCAR-8 [16] = assay: Antiproliferative activity against p53 deficient human OVCAR8 cells after 72 hrs by proliferative assay; type: functional, cell-based; conditions: OVCAR-8, 72 h
HCT-116 [17] = assay: Antiproliferative activity against human HCT116 cells expressing p53 gene after 72 hrs by proliferative assay; type: functional, cell-based; conditions: HCT-116, 72 h
[18] = Induction of cell cycle arrest in p53 deficient human HCT116-E6 cells assessed as accumulation at subG1 phase at 5 uM after 24hrs by FACS analysis; type: functional
MCF7 = assay: Induction of cell cycle arrest in human MCF7 cells expressing p53 gene assessed as accumulation at subG1 phase at 5 uM after 24hrs by FACS analysis; type: functional
PC-3 = assay: Induction of cell cycle arrest in human PC3 cells expressing p53 gene assessed as accumulation at subG1 phase at 5 uM after 24hrs by FACS analysis; type: functional
SF-268 [19] = assay: Induction of cell cycle arrest in p53 deficient human SF268 cells assessed as accumulation at subG1 phase at 10 uM after 24 hrs FACS analysis; type: functional
COLO 205 [20] = assay: Induction of cell cycle arrest in p53 deficient human COLO205 cells assessed as accumulation at subG1 phase at 10 uM after 24hrs by FACS analysis; type: functional
[21] = Induction of cell cycle arrest in p53 deficient human HCT116-E6 cells assessed as accumulation at subG1 phase at 10 uM after 24hrs by FACS analysis; type: functional
OVCAR-8 [22] = assay: Induction of cell cycle arrest in p53 deficient human OVCAR8 cells assessed as accumulation at subG1 phase at 10 uM after 24 hrs by FACS analysis; type: functional
SF-539 [23] = assay: Induction of cell cycle arrest in human SF539 cells expressing p53 gene assessed as accumulation at subG1 phase at 10 uM after 24 hrs by FACS analysis; type: functional
U2OS [24] = assay: Induction of cell cycle arrest in human U2OS cells expressing p53 gene assessed as accumulation at subG1 phase at 10 uM after 24 hrs by FACS analysis; type: functional
A2780 = assay: Induction of cell cycle arrest in human A2780 cells expressing p53 gene assessed as accumulation at subG1 phase at 10 uM after 24 hrs by FACS analysis; type: functional
COLO 205 [25] = assay: Induction of cell cycle arrest in p53 deficient human COLO205 cells assessed as residual DNA synthesis at 5 uM after 24 hrs by FACS analysis; type: functional
Jurkat [26] = assay: Induction of cell cycle arrest in p53 deficient human Jurkat cells assessed as residual DNA synthesis at 5 uM after 24 hrs by FACS analysis; type: functional
OVCAR-8 [27] = assay: Induction of cell cycle arrest in p53 deficient human OVCAR8 cells assessed as residual DNA synthesis at 5 uM after 24hrs by FACS analysis; type: functional
SF-539 [28] = assay: Induction of cell cycle arrest in human SF539 cells expressing p53 gene assessed as residual DNA synthesis at 5 uM after 24 hrs by FACS analysis; type: functional
U2OS [29] = assay: Induction of cell cycle arrest in human U2OS cells expressing p53 gene assessed as residual DNA synthesis at 5 uM after 24 hrs by FACS analysis; type: functional
HeLa [30] = assay: Induction of cell cycle arrest in p53 deficient human HeLa cells assessed as residual DNA synthesis at 10 uM after 24 hrs by FACS analysis; type: functional
SW480 [31] = assay: Induction of cell cycle arrest in p53 deficient human SW480 cells assessed as residual DNA synthesis at 10 uM after 24 hrs by FACS analysis; type: functional
COLO 205 [32] = assay: Induction of cell cycle arrest in p53 deficient human COLO205 cells assessed as residual DNA synthesis at 10 uM after 24 hrs by FACS analysis; type: functional
Jurkat [33] = assay: Induction of cell cycle arrest in p53 deficient human Jurkat cells assessed as residual DNA synthesis at 10 uM after 24 hrs by FACS analysis; type: functional
HCT-116 [34] = assay: Induction of cell cycle arrest in human HCT116 cells expressing p53 gene assessed as residual DNA synthesis at 10 uM after 24 hrs by FACS analysis; type: functional
HCT-15 = assay: Induction of cell cycle arrest in human HCT15 cells expressing p53 gene assessed as residual DNA synthesis at 10 uM after 24 hrs by FACS analysis; type: functional
SF-539 [35] = assay: Induction of cell cycle arrest in human SF539 cells expressing p53 gene assessed as residual DNA synthesis at 10 uM after 24 hrs by FACS analysis; type: functional
NHDF [36] = assay: Induction of cell cycle arrest in NHDF expressing p53 gene assessed as residual DNA synthesis at 10 uM after 24 hrs by FACS analysis; type: cell-based; conditions: human

Serine/threonine-protein kinase Nek6, sequence (Q9HC98 whole entry): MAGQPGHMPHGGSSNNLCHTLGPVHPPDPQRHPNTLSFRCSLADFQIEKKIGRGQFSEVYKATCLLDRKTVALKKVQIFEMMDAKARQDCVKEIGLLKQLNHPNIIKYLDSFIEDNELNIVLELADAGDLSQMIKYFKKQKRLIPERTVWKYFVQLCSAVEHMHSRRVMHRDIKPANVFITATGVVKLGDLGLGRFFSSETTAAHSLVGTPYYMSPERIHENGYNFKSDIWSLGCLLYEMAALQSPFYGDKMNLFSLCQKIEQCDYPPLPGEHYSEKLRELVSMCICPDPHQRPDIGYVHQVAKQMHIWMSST

`O=C1NCCc2[nH]c(-c3ccncc3)cc21` showed an Activity (HeLa [1]) of 236 kilobase, an Activity (HeLa [2]) of 241 kilobase and an Activity (HeLa [3]) of 210 kilobase. For the same compound, the Activity (HeLa [4]) was 1.81 kilobase, the Activity (HeLa [5]) was 1.86 kilobase and the Activity (NHDF [6]) was 1.6%. For the same compound, the Activity [7] was 6.8%, the Activity (NHDF [8]) was “Not Active” and the AUC (Mus musculus) was 47 µM·h. For the same compound, the clearance [9] was 30 mL/min/kg, the clearance [10] was 30 mL/min/kg and the IC50 [11] was over 10000 nM. The IC50 [12] was over 10000 nM, the IC50 (SF-268 [13]) was 860 nM and the IC50 (K562) was 5870 nM. It also gave an IC50 (HeLa [14]) of 1830 nM, an IC50 (SW480 [15]) of 2670 nM and an IC50 (OVCAR-8 [16]) of 1560 nM. It also gave an IC50 (HCT-116 [17]) of 970 nM, an Activity [18] of 3% and an Activity (MCF7) of 3%. It also gave an Activity (PC-3) of 3%, an Activity (SF-268 [19]) of 3% and an Activity (COLO 205 [20]) of over 20%. It also gave an Activity [21] of 3%, an Activity (OVCAR-8 [22]) of 3% and an Activity (SF-539 [23]) of 3%. It also gave an Activity (U2OS [24]) of 3%, an Activity (A2780) of over 20% and an Activity (COLO 205 [25]) of under 3%. The Activity (Jurkat [26]) was under 3%, the Activity (OVCAR-8 [27]) was under 3% and the Activity (SF-539 [28]) was 3%. For the same compound, the Activity (U2OS [29]) was under 3%, the Activity (HeLa [30]) was under 3% and the Activity (SW480 [31]) was under 3%. The Activity (COLO 205 [32]) was 3%, the Activity (Jurkat [33]) was under 3% and the Activity (HCT-116 [34]) was under 3%. It also gave an Activity (HCT-15) of under 3%, an Activity (SF-539 [35]) of under 3% and an Activity (NHDF [36]) of under 3%.

— ChEMBL document CHEMBL1221210, “A Cdc7 kinase inhibitor restricts initiation of DNA replication and has antitumor activity” (Nat Chem Biol, 2008)
